In patent publication US20240101570A1 (AMGEN INC., priority 2020, published 2024):
pIC50: −log10 of the molar value.

What was measured:
HCT116 MTAP null cells = assay: HCT116 MTAP null cell proliferation / viability (CellTiter-Glo, 6 days); format: cell-based; settings: for pIC50: HCT116-MTAP null, 144 h, HCT116 MTAP null cells, 6 days, CellTiter-Glo, read-out: HCT-116 MTAP null IC50
Procedure: (§1) HCT116 MTAP null and WT cells were seeded in 96-well tissue culture plates in RPMI 1640 media+10% fetal bovine serum. Plates were incubated overnight at 37° C. and 5% CO2. Cells were then treated with an 8- or 9-point serial dilution of compound, using a top concentration of 1, or 10 μM, 1:3 serial dilution steps and, a DMSO-only control. Cells were incubated in the presence of drug for 6 days. Effects on cell viability were measured with the CellTiter-Glo® Luminescent Cell Viability Assay (Promega) per manufacturer's recommendation. Assay plates were read on an EnVision™ Multilabel Reader using the Ultra-Sensitive luminescence module. IC50 values were calculated with GraphPad Prism v 5.01 using symmetrical sigmoidal dose-response least squares fit with Hill slope fixed to −1 and top constrain to 100% or GeneData Screener using a 4-parameter logistic model to fit dose response curves.
(§2) Alternatively, compounds could be assayed with a 384 well plate format:
(§3) Compounds were pre-spotted into 384 well plates with a 22-point serial dilution of compound, using a top concentration of 10 or 50 μM, 1:2 serial dilution steps and, a DMSO-only control. HCT116 MTAP null and WT cells were then seeded as above and after 6 days effects on cell viability were measured with the CellTiter-Glo® Luminescent Cell Viability Assay (Promega). Assay plates were read as above and IC50 values were calculated with GeneData Screener using a 4-parameter logistic model to fit dose response curves. The reported IC50 represents the value where the curve transits 50% of control.

HCT116 WT cells = assay: HCT116 WT cell proliferation / viability (CellTiter-Glo, 6 days); format: cell-based; settings: Homo sapiens, HCT-116, 144 h, HCT116 WT cells, 6 days, CellTiter-Glo; read-out: HCT-116 WT IC50
Procedure: as §1, §2, §3

| Structure (SMILES) | pIC50 (HCT116 MTAP null cells) | pIC50 (HCT116 WT cells) | potency of enantiomer relative to the other enantiomer, measured by IC50 in HCT116 MTAP null cell viability assay (HCT116 MTAP null cells; HCT116 MTAP null, comparison of the two SFC-separated enantiomers) |
| --- | --- | --- | --- |
| CC(CF)N(Cc1ccc(C#N)cn1)C(=O)c1cc2c3c(c(N)nc2cn1)COC3 (racemic) [Example 687, 4-amino-N-((5-cyano-2-pyridinyl)methyl)-N-((2R)-1-fluoro-2-propanyl)-1,3-dihydrofuro[3,4-c][1,7]naphthyridine-8-carboxamide and 4-amino-N-((5-cyano-2-pyridinyl)methyl)-N-((2S)-1-fluoro-2-propanyl)-1,3-dihydrofuro[3,4-c][1,7]naphthyridine-8-carboxamide] | < 5.00 | < 5.00 |  |
| CC(c1ccc(C(F)(F)F)cn1)N(C)C(=O)c1cnc2nc(N)c3c(c2c1)COC3 (racemic) [Example 700, 4-amino-N-methyl-N-((1R)-1-(5-(trifluoromethyl)-2-pyridinyl)ethyl)-1,3-dihydrofuro[3,4-c][1,8]naphthyridine-8-carboxamide and 4-amino-N-methyl-N-((1S)-1-(5-(trifluoromethyl)-2-pyridinyl)ethyl)-1,3-dihydrofuro[3,4-c][1,8]naphthyridine-8-carboxamide] | 5.96 | < 5.00 |  |
| CCN(C(=O)c1cnc2nc(N)c3c(c2c1)COC3)C(C)c1ccc(C(F)(F)F)cn1 (racemic) [Example 705, 4-amino-N-ethyl-N-((1R)-1-(5-(trifluoromethyl)-2-pyridinyl)ethyl)-1,3-dihydrofuro[3,4-c][1,8]naphthyridine-8-carboxamide and 4-amino-N-ethyl-N-((1S)-1-(5-(trifluoromethyl)-2-pyridinyl)ethyl)-1,3-dihydrofuro[3,4-c][1,8]naphthyridine-8-carboxamide] | 6.20 | 4.55 |  |
| CC(c1ccc(C(F)(F)F)cn1)N(C)C(=O)c1ccc2nc(N)c3c(cnn3C)c2c1 (racemic) [Example 716, 4-amino-N,3-dimethyl-N-((1R)-1-(5-(trifluoromethyl)-2-pyridinyl)ethyl)-3H-pyrazolo[3,4-c]quinoline-8-carboxamide and 4-amino-N,3-dimethyl-N-((1S)-1-(5-(trifluoromethyl)-2-pyridinyl)ethyl)-3H-pyrazolo[3,4-c]quinoline-8-carboxamide] | 6.04 | 4.48 |  |
| CCN(C(=O)c1cc2c3c(c(N)nc2cc1F)COC3)C(C)c1ccc(C(F)(F)F)cn1 (racemic) [Example 719, 4-amino-N-ethyl-7-fluoro-N-((1R)-1-(5-(trifluoromethyl)-2-pyridinyl)ethyl)-1,3-dihydrofuro[3,4-c]quinoline-8-carboxamide and 4-amino-N-ethyl-7-fluoro-N-((1S)-1-(5-(trifluoromethyl)-2-pyridinyl)ethyl)-1,3-dihydrofuro[3,4-c]quinoline-8-carboxamide] | 5.99 | 4.66 |  |
| CC(c1ncc(F)cn1)N(CCOC(F)(F)F)C(=O)c1cc2c3c(c(N)nc2cc1F)COC3 (racemic) [Example 725, 4-amino-7-fluoro-N-((1R)-1-(5-fluoro-2-pyrimidinyl)ethyl)-N-(2-(trifluoromethoxy)ethyl)-1,3-dihydrofuro[3,4-c]quinoline-8-carboxamide and 4-amino-7-fluoro-N-((1S)-1-(5-fluoro-2-pyrimidinyl)ethyl)-N-(2-(trifluoromethoxy)ethyl)-1,3-dihydrofuro[3,4-c]quinoline-8-carboxamide] | 6.07 | < 4.30 |  |
| CCN(C(=O)c1ccc2nc(N)c3c(c2c1)COC3)C(C)c1ccc(Cl)nc1 (racemic) [Example 727, 4-amino-N-((1R)-1-(6-chloro-3-pyridinyl)ethyl)-N-ethyl-1,3-dihydrofuro[3,4-c]quinoline-8-carboxamide and 4-amino-N-((1S)-1-(6-chloro-3-pyridinyl)ethyl)-N-ethyl-1,3-dihydrofuro[3,4-c]quinoline-8-carboxamide] | 6.55 | 4.91 |  |
| CN(C(=O)c1cc2c3c(c(N)nc2cn1)COC3)C(c1ccc(C(F)(F)F)cn1)C1CC1 (racemic) [Example 764, 4-amino-N-((R)-cyclopropyl(5-(trifluoromethyl)-2-pyridinyl)methyl)-N-methyl-1,3-dihydrofuro[3,4-c][1,7]naphthyridine-8-carboxamide and 4-amino-N-((S)-cyclopropyl(5-(trifluoromethyl)-2-pyridinyl)methyl)-N-methyl-1,3-dihydrofuro[3,4-c][1,7]naphthyridine-8-carboxamide] | 5.20 | < 4.30 |  |
| CC(c1ccc(F)cn1)N(C)C(=O)c1cc2c3c(c(N)nc2cc1Cl)COC3 (racemic) [Example 772, 4-amino-7-chloro-N-((1R)-1-(5-fluoro-2-pyridinyl)ethyl)-N-methyl-1,3-dihydrofuro[3,4-c]quinoline-8-carboxamide and 4-amino-7-chloro-N-((1S)-1-(5-fluoro-2-pyridinyl)ethyl)-N-methyl-1,3-dihydrofuro[3,4-c]quinoline-8-carboxamide] | 6.43 | 4.74 |  |
| C[C@H](CF)N(Cc1ccc(C#N)cn1)C(=O)c1ccc2nc(N)c3c(c2c1)COC3 (single isomer, unassigned) [Example 577] | 5.49 | < 5.00 | more potent |

Stronger by pIC50 (HCT116 MTAP null cells), values ahead:

| pIC50 (HCT116 MTAP null cells) | pIC50 (HCT116 WT cells) | potency of enantiomer relative to the other enantiomer, measured by IC50 in HCT116 MTAP null cell viability assay (HCT116 MTAP null cells; HCT116 MTAP null, comparison of the two SFC-separated enantiomers) | Structure (SMILES) |
| --- | --- | --- | --- |
| 6.62 | 5.50 |  | COCC(C1CC1)N(Cc1ccc(Br)nn1)C(=O)c1ccc2nc(N)c3sccc3c2c1 (racemic) [Example 639, 4-amino-N-((6-bromo-3-pyridazinyl)methyl)-N-((1R)-1-cyclopropyl-2-methoxyethyl)thieno[2,3-c]quinoline-8-carboxamide and 4-amino-N-((6-bromo-3-pyridazinyl)methyl)-N-((1S)-1-cyclopropyl-2-methoxyethyl)thieno[2,3-c]quinoline-8-carboxamide] |
| 6.92 | 5.35 |  | CC(c1ccc(C(F)(F)F)cn1)N(C)C(=O)c1ccc2nc(N)c3c(c2c1)COC3 (racemic) [Example 697, 4-amino-N-methyl-N-((1R)-1-(5-(trifluoromethyl)-2-pyridinyl)ethyl)-1,3-dihydrofuro[3,4-c]quinoline-8-carboxamide and 4-amino-N-methyl-N-((1S)-1-(5-(trifluoromethyl)-2-pyridinyl)ethyl)-1,3-dihydrofuro[3,4-c]quinoline-8-carboxamide] |
| 7.12 | 5.37 |  | CC(c1ccc(C(F)(F)F)cn1)N(C)C(=O)c1cc2c3c(c(N)nc2cn1)COC3 (racemic) [Example 709, 4-amino-N-methyl-N-((1R)-1-(5-(trifluoromethyl)-2-pyridinyl)ethyl)-1,3-dihydrofuro[3,4-c][1,7]naphthyridine-8-carboxamide and 4-amino-N-methyl-N-((1S)-1-(5-(trifluoromethyl)-2-pyridinyl)ethyl)-1,3-dihydrofuro[3,4-c][1,7]naphthyridine-8-carboxamide] |
| 7.15 | 5.65 |  | CCN(C(=O)c1cc2c3c(c(N)nc2cc1F)COC3)C(C)c1ccc(Cl)nc1 (racemic) [Example 739, 4-amino-N-((1R)-1-(6-chloro-3-pyridinyl)ethyl)-N-ethyl-7-fluoro-1,3-dihydrofuro[3,4-c]quinoline-8-carboxamide and 4-amino-N-((1S)-1-(6-chloro-3-pyridinyl)ethyl)-N-ethyl-7-fluoro-1,3-dihydrofuro[3,4-c]quinoline-8-carboxamide] |
| 7.23 | 5.62 |  | CCN(C(=O)c1cc2c3c(c(N)nc2cc1Cl)COC3)C(C)c1ccc(Cl)nc1 (racemic) [Example 737, 4-amino-7-chloro-N-((1R)-1-(6-chloro-3-pyridinyl)ethyl)-N-ethyl-1,3-dihydrofuro[3,4-c]quinoline-8-carboxamide and 4-amino-7-chloro-N-((1S)-1-(6-chloro-3-pyridinyl)ethyl)-N-ethyl-1,3-dihydrofuro[3,4-c]quinoline-8-carboxamide] |
| 7.66 | 5.52 |  | CC1OCc2c1c(N)nc1ccc(C(=O)N(Cc3ccc(C(F)(F)F)cn3)[C@H]3C[C@@H]3C(F)(F)F)cc21 (mixture of isomers) [Example 910, 4-amino-3-methyl-N-((1R,2R)-2-(trifluoromethyl)cyclopropyl)-N-((5-(trifluoromethyl)-2-pyridinyl)methyl)-1,3-dihydrofuro[3,4-c]quinoline-8-carboxamide and 4-amino-3-methyl-N-((1S,2S)-2-(trifluoromethyl)cyclopropyl)-N-((5-(trifluoromethyl)-2-pyridinyl)methyl)-1,3-dihydrofuro[3,4-c]quinoline-8-carboxamide] |
| 7.89 | 6.96 |  | CC(c1ncccn1)N(Cc1ccc(C(F)(F)F)cn1)C(=O)c1ccc2nc(N)c3c(c2c1)COC3 (racemic) [Example 640, 4-amino-N-((1R)-1-(2-pyrimidinyl)ethyl)-N-((5-(trifluoromethyl)-2-pyridinyl)methyl)-1,3-dihydrofuro[3,4-c]quinoline-8-carboxamide and 4-amino-N-((1S)-1-(2-pyrimidinyl)ethyl)-N-((5-(trifluoromethyl)-2-pyridinyl)methyl)-1,3-dihydrofuro[3,4-c]quinoline-8-carboxamide] |
